Experimental data reported in patent US20060269621A1, “Novel therapeutic extracts and molecules for degenerative conditions” (Avestha Gengraine Technologies Pvt.Ltd., priority 2003, published 2006).

Tests used:
[1] = test system: 3T3-L1 adipocytes; test: Standardization / validation of [3H]-glucose uptake 3T3-L1 assay with insulin and glitazone; assay type: cell-based; conditions: for [3H]-glucose uptake with insulin: in cpm (unit assumed); for Counts with insulin: insulin alone control
Procedure: In the first set of assays (insulin control and the first 9 samples) cells were grown in 96 well plates, and assayed for 3H-deoxyglucose uptake. Briefly cells were treated with plant extract overnight and immediately before the assay got washed with Krebs-Ringer-HEPES Buffer [20 mM HEPES, pH 7.4, 136 mM NaCl, 4.7 mM KCl, 1.5 mM MgSO4] at 37° C. for 30 minutes and then treated with insulin. Glucose uptake reaction was initiated by adding 0.1 mM deoxy-glucose containing deoxy-tritiated-glucose containing 12.2 kBq/mL. After 30 minutes of 37° C. incubation, the reaction was terminated by adding 40 uM cytochalasin-B. Cells were washed 3× with ice cold KRH buffer and solubilized with 100 μl of 10% Triton-X with Ca/Mg free PBS. Radioactivity incorporated into cells was measured on a top count microplate scintillation counter. Results are being interpreted as mean±SD of counts per minute.
As the basal counts were low, the assay design was changed to a 24-well format and the cell numbers increased from 100,000 cells per well to 2 million cells per well.
The two controls in this experiment were: (a) [^3H]-deoxyglucose uptake by cells in the absence of both insulin and plant extracts, and (b) [^3H]-deoxyglucose uptake by cells in the presence of insulin and absence of plant extracts.

[2] = test system: 3T3-L1 adipocytes; test: as above; assay type: cell-based; conditions: 48 hrs

Compound	[3H]-glucose uptake with insulin ([1]; 100,000 cells/well, Insulin 1 nM)	[3H]-glucose uptake with insulin ([1]; 100,000 cells/well, Insulin 10 nM)	[3H]-glucose uptake with insulin ([1]; 100,000 cells/well, Insulin 100 nM)	[3H]-glucose uptake with insulin ([1]; 2,000,000 cells/well, Insulin 10 nM)	[3H]-glucose uptake with insulin ([1]; 2,000,000 cells/well, Insulin 25 nM)	[3H]-glucose uptake with insulin ([1]; 2,000,000 cells/well, Insulin 100 nM)	Counts per minute ([1]; Insulin 25 nM, 15 min) [Counts per minute]	Counts per minute ([1]; Insulin 25 nM, 30 min) [Counts per minute]	Counts per minute ([1]; Insulin 25 nM, 60 min) [Counts per minute]	[3H]-deoxyglucose uptake, Counts per minute ([1]; control: cells + insulin, no plant extract) [Counts per minute]	Counts with insulin ([1]; Table 15, first of two value columns) [Counts per minute]	Counts with insulin ([1]; Table 15, second of two value columns) [Counts per minute]	Counts per minute ([2]; Glitazone 60 μg) [Counts per minute]	Counts per minute ([2]; Glitazone 300 μg) [Counts per minute]	Counts per minute ([1]; Glitazone 150 μg, 48 hrs) [Counts per minute]
Insulin	60.5	502	1850	36562	38538	55258	48026.7	24699.9	28103.3	36561	33065.1	32352.28	–	–	–
O=C1NC(=O)C(Cc2ccc(O)cc2)S1 (stereo not drawn) [Glitazone]	–	–	–	–	–	–	–	–	–	–	–	–	7886	47971.9	15900.4
